Values after ≈ are worked out from the molar mass of the structure shown. Where a SMILES comes first, the peptide text is derived from it. Bridges are numbered along the chain shown (N, C = ends). [ ]: non-standard residue; d: D form. The star is where a group is joined. X14 = O=C(c1ccc(C(F)(F)F)cn1)*; X51 = O=C(c1cc(Cl)nc(Cl)c1)*; X52 = O=C(c1nc2ccccc2s1)*; Dab = NCC[C@H](N)C(=O)O; Abu = CC[C@H](N)C(=O)O; Dap = NC[C@H](N)C(=O)O
Key:
[1] = tested on: mouse kidney; experiment: Nephrotoxicity in a mouse model (kidney histology); format: in vivo; conditions: mice (n=3), subcutaneous 12 mg/kg free base every 2 h, 6 doses in one day; for Max Overall Kidney Histological Score: kidney ~20 h after last dose; for Max Kidney Histological Score: semiquantitative score 0 to +5
Description: Polymyxin B sulphate and colistin sulphate were supplied by Betapharma (Shanghai Co., Ltd, China). Stock solutions of compounds in saline (5 mg base/mL) were stored at 4° C. before use. Mice (n=3) were subcutaneously administered with the compound at 12 mg/kg of the free base form every 2 h, 6 doses in one day. At approximately 20 h after the last dose, mice were euthanised by inhalation of an overdose of isoflurane. Immediately after blood sampling, the right kidney from each mouse was collected immediately and placed in 10% formalin in 5 mL plastic tubes and the left kidney placed in a pre-weighed 14 mL plastic tubes, weighed again and stored at −20° C. pending homogenization and analysis of polymyxin B and colistin. The frozen kidney samples were thawed, homogenized in 2 mL of Milli-Q water and stored in a −20° C. freezer. The formalin-fixed kidneys were then sent to the Australian Phenomics Network-Histopathology and Organ Pathology (The University of Melbourne, Parkville, Australia) for histological examination. Samples were examined by a pathologist who was blind to the treatment groups.
Lesions were rated as follows: mild acute tubular damage with tubular dilation, prominent nuclei and a few pale tubular casts (Grade 1); severe acute tubular damage with necrosis of tubular epithelial cells and numerous tubular casts (Grade 2); acute cortical necrosis/infarction of tubules and glomeruli with or without papillary necrosis (Grade 3). The grades were given the following scores: grade 1=1, grade 2=4, and grade 3=10. The percentage of area of the kidney slice showing histological damage was scored as follows: <1%=0, 1 to <5%=1, 5 to <10%=2, 10 to <20%=3, 20 to <30%=4, 30 to <40%=5, and >40%=6. The overall kidney histological score was calculated as the product of the percentage score and grade score. These scores were then expressed as a semiquantitative score (Kidney Histological Score) on a scale of 0 to +5 for renal histological changes. These scores were assigned as follows: SQS 0=no significant change (overall score, <1); SQS +1=mild damage (overall score, 1 to <15); SQS +2=mild to moderate damage (overall score, 15 to <30); SQS +3=moderate damage (overall score, 30 to <45); SQS +4=moderate to severe damage (overall score, 45 to <60); and SQS +5=severe damage (overall score, ≥60) (Yousef, J., et al., (2011) Antimicrob. Agents and Chemother. 55 (9), 4044-4049).
Any compound with a kidney histological score of ≤+1.0 is considered to have a low nephrotoxicity in this model.

[2] = tested on: Acinetobacter baumannii FADDI-AB030; experiment: microbe, parasite or virus in culture; format: cell-based; conditions: A. baumannii FADDI-AB030; CAMHB broth microdilution
How it was run: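 Lipopeptide TFA salts tested against the multidrug-resistant clinical isolate by CLSI (M100-S24) broth microdilution in cation-adjusted Mueller-Hinton broth, with polymyxin B sulphate as control; MIC read.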

[3] = tested on: Enterobacter cloacae FADDI-EC003; format: cell-based; conditions: E. cloacae FADDI-EC003; CAMHB broth microdilution
How it was run: (§1)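 Broth microdilution, CAMHB, per CLSI M100-S24; lipopeptides as TFA salts; polymyxin B sulphate control. Read-out: MIC. Strains are polymyxin-susceptible; PA022 and AB034 are MDR clinical isolates.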

[4] = tested on: Klebsiella pneumoniae FADDI-KP022; format: cell-based; conditions: K. pneumoniae FADDI-KP022; CAMHB broth microdilution
How it was run: as §1

[5] = tested on: Enterobacter cloacae FADDI-EC006; format: cell-based; conditions: E. cloacae FADDI-EC006; CAMHB broth microdilution
How it was run: as §1

[6] = tested on: Pseudomonas aeruginosa FADDI-PA01; format: cell-based; conditions: P. aeruginosa FADDI-PA01; CAMHB broth microdilution
How it was run: as §1

[7] = tested on: Klebsiella pneumoniae FADDI-KP032; format: cell-based; conditions: K. pneumoniae FADDI-KP032; CAMHB broth microdilution
How it was run: as §1

[8] = tested on: Acinetobacter baumannii FADDI-AB034; format: cell-based; conditions: A. baumannii FADDI-AB034; CAMHB broth microdilution
How it was run: as §1

[9] = tested on: Pseudomonas aeruginosa ATCC 27853; format: cell-based; conditions: P. aeruginosa ATCC 27853; CAMHB broth microdilution
How it was run: as §1

[10] = tested on: Acinetobacter baumannii ATCC 17978; format: cell-based; conditions: A. baumannii ATCC 17978; CAMHB broth microdilution
How it was run: as §1

[11] = tested on: Enterobacter cloacae FADDI-EC001; format: cell-based; conditions: E. cloacae FADDI-EC001; CAMHB broth microdilution
How it was run: (§2)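 Standard CLSI (M100-S24) microdilution in cation-adjusted broth gives the MIC for each strain. Test compounds are TFA-salt lipopeptides; the comparator is polymyxin B sulphate.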

[12] = tested on: Pseudomonas aeruginosa FADDI-PA022; format: cell-based; conditions: P. aeruginosa FADDI-PA022; CAMHB broth microdilution
How it was run: as §1

[13] = tested on: Klebsiella pneumoniae Kp BM1; format: cell-based; conditions: K. pneumoniae Kp BM1; CAMHB broth microdilution
How it was run: as §2

[14] = tested on: Pseudomonas aeruginosa FADDI-PA038; format: cell-based; conditions: P. aeruginosa FADDI-PA038; CAMHB broth microdilution
How it was run: as §1

Row | SMILES | Max Overall Kidney Histological Score [1] | Max Kidney Histological Score [1] | Minimum inhibitory concentration [2] [µg/mL] | Minimum inhibitory concentration [3] [µg/mL] | Minimum inhibitory concentration [4] [µg/mL] | Minimum inhibitory concentration [5] [µg/mL] | Minimum inhibitory concentration [6] [µg/mL] | Minimum inhibitory concentration [7] [µg/mL] | Minimum inhibitory concentration [8] [µg/mL] | Minimum inhibitory concentration [9] [µg/mL] | Minimum inhibitory concentration [10] [µg/mL] | Minimum inhibitory concentration [11] [µg/mL] | Minimum inhibitory concentration [12] [µg/mL] | Minimum inhibitory concentration [13] [µg/mL] | Minimum inhibitory concentration [14] [µg/mL]
1 | CC[C@@H]1NC(=O)[C@@H](CC(C)C)NC(=O)[C@H](CCN)NC(=O)[C@@H](NC(=O)[C@H](CN)NC(=O)[C@@H](NC(=O)[C@H](CCN)NC(=O)c2cc(Cl)nc(Cl)c2)[C@@H](C)O)CCNC(=O)[C@H]([C@@H](C)O)NC(=O)[C@H](CCN)NC(=O)[C@H](CCN)NC1=O [Compound 19] (X51-[Dab]T[Dap][Dab][Dab][dL][Abu][Dab][Dab]T; lactam 4-C) | 0.0 | 0 (SQS 0=no significant change (overall score, <1)) |  |  |  |  |  |  |  |  |  |  |  |  | 
2 | CC[C@@H]1NC(=O)[C@@H](CC(C)C)NC(=O)[C@H](CCN)NC(=O)[C@@H](NC(=O)[C@H](CN)NC(=O)[C@@H](NC(=O)[C@H](CCN)NC(=O)c2nc3ccccc3s2)[C@@H](C)O)CCNC(=O)[C@H]([C@@H](C)O)NC(=O)[C@H](CCN)NC(=O)[C@H](CCN)NC1=O [Compound 70] (X52-[Dab]T[Dap][Dab][Dab][dL][Abu][Dab][Dab]T; lactam 4-C) | 0.0 | 0 (SQS 0=no significant change (overall score, <1)) | 0.5 (≈ 0.435 µM) | 0.25 (≈ 0.218 µM) | <0.125 | 0.25 (≈ 0.218 µM) | 0.25 (≈ 0.218 µM) | <0.125 | 1 (≈ 0.871 µM) | 0.5 (≈ 0.435 µM) | 0.5 (≈ 0.435 µM) | 0.25 (≈ 0.218 µM) | 0.5 (≈ 0.435 µM) | <0.125 | 1 (≈ 0.871 µM)
3 | CC[C@@H]1NC(=O)[C@@H](CC(C)C)NC(=O)[C@H](CCN)NC(=O)[C@@H](NC(=O)[C@H](CN)NC(=O)[C@@H](NC(=O)[C@H](CCN)NC(=O)c2ccc(C(F)(F)F)cn2)[C@@H](C)O)CCNC(=O)[C@H]([C@@H](C)O)NC(=O)[C@H](CCN)NC(=O)[C@H](CCN)NC1=O [Compound 38] (X14-[Dab]T[Dap][Dab][Dab][dL][Abu][Dab][Dab]T; lactam 4-C) | 0.0 | 0 (SQS 0=no significant change (overall score, <1)) | 1 (≈ 0.862 µM) | 0.25 (≈ 0.215 µM) | 0.25 (≈ 0.215 µM) | 0.25 (≈ 0.215 µM) | 0.25 (≈ 0.215 µM) | <0.125 | 0.25 (≈ 0.215 µM) | 0.25 (≈ 0.215 µM) | 1 (≈ 0.862 µM) | <0.125 | 0.25 (≈ 0.215 µM) | <0.125 | 1 (≈ 0.862 µM)
